# Target: SMYD3 (Homo sapiens (Human), UniProt Q9H7B4)
# Experiment: SMYD3 biochemical assay (SPA, 3H-SAM methylation of MEKK2 protein substrate)
# Settings: read-out: SMYD3 Biochem IC50 (μM)*
# Source text: S-adenosylmethionine (SAM), S-adenosylhomocysteine (SAH), Tris, Tween20, dimethylsulfoxide (DMSO), bovine skin gelatin (BSG), and Tris(2-carboxyethyl)phosphine hydrochloride solution (TCEP) were purchased from Sigma-Aldrich at the highest level of purity possible. ^3H-SAM was purchase from American Radiolabeled Chemicals with a specific activity of 80 Ci/mmol. 384-well opaque white OptiPlates and SPA beads (Perkin Elmer, catalog # RPNQ0013) were purchased from PerkinElmer.
# N-terminally GST-tagged MEKK2 (MAP3K2) protein corresponding to reference sequence AAF63496.3 was purchased from Life Technologies (catalog # PV4010). This protein was expressed in High Five insect cells and purified to >85% purity. Protein identity was confirmed by MS/MS analysis after proteolytic digestion. The protein sequence used was:
# Full-length human SMYD3 isoform 1 (BAB86333) was inserted into a modified pET21b plasmid containing a His6 tag and TEV and SUMO cleavage sites.
# E. coli (BL21 codonplus RIL strain, Stratagene) were transformed with plasmid pEPZ553 by mixing competent cells and plasmid DNA and incubating on ice for 30 minutes followed by heat shock at 42° C. for 1 minute and cooling on ice for 2 minutes. Transformed cells were grown and selected on LB agar with 100 μg/mL ampicillin and 17 μg/mL chloramphenicol at 37° C. overnight. A single clone was used to inoculate 200 mL of LB medium with 100 μg/mL ampicillin and 17 μg/mL chloramphenicol and incubated at 37° C. on an orbital shaker at 180 rpm. Once in log growth, the culture was diluted 1:100 into 2 L of LB medium and grown until OD600 was about 0.3 after which the culture was incubated at 15° C. and 160 rpm. Once OD600 reached about 0.4, IPTG was added to a final concentration of 0.1 mM and the cells were grown overnight at 15° C. and 160 rpm. Cells were harvested by centrifugation at 8000 rpm, for 4 minutes at 4° C. and stored at −80° C. for purification.
# The column was washed with Buffer B (Buffer A plus 20 mM imidazole) and His-tagged SMYD3 was eluted with Buffer C (Buffer A plus 300 mM imidazole). The His tag, TEV and SUMO cleavage sites were removed generating native SMYD3 by addition of ULP1 protein at a ratio of 1:200 (ULP1:SMYD3). Imidazole was removed by dialysis overnight in Buffer A. The dialyzed solution was applied to a second Nickel column and the native SMYD3 protein was collected from the column flow-through. The flow-through was dialyzed in Buffer D (25 mM Tris, 5% glycerol, 5 mM β-mercaptoethanol, 50 mM NaCl, pH7.8) and ULP1 was removed using a Q sepharose fast flow column.
# General Procedure for SMYD3 Enzyme Assays on MEKK2 Protein Substrate
# The assays were all performed in a buffer consisting of 25 mM Tris-Cl pH 8.0, 1 mM TCEP, 0.005% BSG, and 0.005% Tween 20, prepared on the day of use. […] DMSO (1 ul) was added to Columns 11, 12, 23, 24, rows A-H for the maximum signal control and 1 ul of SAH, a known product and inhibitor of SMYD3, was added to columns 11, 12, 23, 24, rows I-P for the minimum signal control. A cocktail (40 ul) containing the SMYD3 enzyme was added by Multidrop Combi (Thermo-Fisher). The compounds were allowed to incubate with SMYD3 for 30 min at room temperature, then a cocktail (10 ul) containing SAM and MEKK2 was added to initiate the reaction (final volume=51 ul). […] The assays were stopped by the addition of non-radiolabeled SAM (10 ul) to a final concentration of 100 uM, which dilutes the ^3H-SAM to a level where its incorporation into MEKK2 is no longer detectable. Radiolabeled MEKK2 was detected using a scintillation proximity assay (SPA). 10 uL of a 10 mg/mL solution of SPA beads in 0.5 M citric acid was added and the plates centrifuged at 600 rpm for 1 min to precipitate the radiolabeled MEKK2 onto the SPA beads. The plates were then read in a PerkinElmer TopCount plate reader to measure the quantity of ^3H-labeled MEKK2 as disintegrations per minute (dpm) or alternatively, referred to as counts per minute (cpm).
row,Compound,IC50
1,"NCCC(=O)NC[C@H](Cc1ccc(O)c(I)c1)C(=O)N1CCC(NC(=O)c2cc(C3CC3)on2)CC1 [compound 35, (S)-N-(1-(3-(3-aminopropanamido)-2-(4-hydroxy-3-iodobenzyl)propanoyl)piperidin-4-yl)-5-cyclopropylisoxazole-3-carboxamide]",0.117 µM
2,"NCC(=O)NC[C@@H](Cc1ccc(O)c(I)c1)C(=O)N1CCC(NC(=O)c2cc(C3CC3)on2)CC1 [compound 36, (R)-N-(1-(3-(2-aminoacetamido)-2-(4-hydroxy-3-iodobenzyl)propanoyl)piperidin-4-yl)-5-cyclopropylisoxazole-3-carboxamide]",9.41 µM
3,"NCC(=O)NC[C@H](Cc1ccc(O)c(I)c1)C(=O)N1CCC(NC(=O)c2cc(C3CC3)on2)CC1 [compound 37, (S)-N-(1-(3-(2-aminoacetamido)-2-(4-hydroxy-3-iodobenzyl)propanoyl)piperidin-4-yl)-5-cyclopropylisoxazole-3-carboxamide]",0.623 µM
4,"Cc1ccc(C[C@H](CN)C(=O)N2CCC(NC(=O)c3cc(C4CC4)on3)CC2)cc1O [compound 38, (R)-N-(1-(3-amino-2-(3-hydroxy-4-methylbenzyl)propanoyl)piperidin-4-yl)-5-cyclopropylisoxazole-3-carboxamide]",0.518 µM
5,"NCCCN1CCC(NC(=O)c2cc(C3CC3)on2)CC1 [compound 40, N-(1-(3-aminopropyl)piperidin-4-yl)-5-cyclopropylisoxazole-3-carboxamide]",3.16 µM
6,"C[C@@H](N)C(=O)NC[C@@H](Cc1ccc(O)c(I)c1)C(=O)N1CCC(NC(=O)c2cc(C3CC3)on2)CC1 [compound 42, N-(1-((R)-3-((R)-2-aminopropanamido)-2-(4-hydroxy-3-iodobenzyl)propanoyl)piperidin-4-yl)-5-cyclopropylisoxazole-3-carboxamide]",8.39 µM
7,"C[C@@H](N)CC(=O)NC[C@@H](Cc1ccc(O)c(I)c1)C(=O)N1CCC(NC(=O)c2cc(C3CC3)on2)CC1 [compound 44, N-(1-((R)-3-((R)-3-aminobutanamido)-2-(4-hydroxy-3-iodobenzyl)propanoyl)piperidin-4-yl)-5-cyclopropylisoxazole-3-carboxamide]",13.8 µM
8,"C[C@@H](N)CC(=O)NC[C@H](Cc1ccc(O)c(I)c1)C(=O)N1CCC(NC(=O)c2cc(C3CC3)on2)CC1 [compound 45, N-(1-((S)-3-((R)-3-aminobutanamido)-2-(4-hydroxy-3-iodobenzyl)propanoyl)piperidin-4-yl)-5-cyclopropylisoxazole-3-carboxamide]",0.479 µM
9,"C[C@H]1CN(C(=O)[C@H](N)Cc2ccc(O)cc2)CCC1NC(=O)c1cc(C2CC2)on1 (stereo partly drawn) [compound 47, N-((3S)-1-(D-tyrosyl)-3-methylpiperidin-4-yl)-5-cyclopropylisoxazole-3-carboxamide]",14.9 µM
10,"C[C@H]1CN(C(=O)CN)CCC1NC(=O)c1cc(C2CC2)on1 (stereo partly drawn) [compound 49, 5-cyclopropyl-N-((3S)-1-glycyl-3-methylpiperidin-4-yl)isoxazole-3-carboxamide]",37.2 µM
11,"C[C@@H]1CN(C(=O)CN)CC[C@H]1NC(=O)c1cc(C2CC2)on1 [compound 50, 5-cyclopropyl-N-((3R,4R)-1-glycyl-3-methylpiperidin-4-yl)isoxazole-3-carboxamide]",9.72 µM
12,"C[C@@H]1CN(C(=O)CN)CC[C@@H]1NC(=O)c1cc(C2CC2)on1 [compound 51, 5-cyclopropyl-N-((3R,4S)-1-glycyl-3-methylpiperidin-4-yl)isoxazole-3-carboxamide]",12.7 µM
13,"C[C@@H]1C[C@@H](NC(=O)c2cc(C3CC3)on2)CCN1C(=O)CC1CCNCC1 [compound 53, 5-cyclopropyl-N-((2R,4S)-2-methyl-1-(2-(piperidin-4-yl)acetyl)piperidin-4-yl)isoxazole-3-carboxamide]",0.862 µM
14,"C[C@H]1C[C@@H](NC(=O)c2cc(C3CC3)on2)CCN1C(=O)CC1CCNCC1 [compound 54, 5-cyclopropyl-N-((2S,4S)-2-methyl-1-(2-(piperidin-4-yl)acetyl)piperidin-4-yl)isoxazole-3-carboxamide]",2.08 µM
15,"C[C@@H]1C[C@@H](NC(=O)c2cc(C3CC3)on2)CCN1C(=O)[C@H]1CC[C@H](N)CC1 [compound 58, N-((2R,4S)-1-((1r,4R)-4-aminocyclohexane-1-carbonyl)-2-methylpiperidin-4-yl)-5-cyclopropylisoxazole-3-carboxamide]",1.4 µM
16,"C[C@H](N)C(=O)NC[C@H](Cc1ccc(O)c(I)c1)C(=O)N1CCC(NC(=O)c2cc(C3CC3)on2)CC1 [compound 62, N-(1-((S)-3-((S)-2-aminopropanamido)-2-(4-hydroxy-3-iodobenzyl)propanoyl)piperidin-4-yl)-5-cyclopropylisoxazole-3-carboxamide]",1.33 µM

# The remaining compounds from weak to strong by IC50, led by results:
row,IC50,Compound
1,32.5 µM,"C[C@H]1CC(NC(=O)c2cc(C3CC3)on2)CCN1C(=O)CN (stereo partly drawn) [compound 52, 5-cyclopropyl-N-((2S)-1-glycyl-2-methylpiperidin-4-yl)isoxazole-3-carboxamide]"
2,15.3 µM,"C[C@H](N)C(=O)NC[C@@H](Cc1ccc(O)c(I)c1)C(=O)N1CCC(NC(=O)c2cc(C3CC3)on2)CC1 [compound 61, N-(1-((R)-3-((S)-2-aminopropanamido)-2-(4-hydroxy-3-iodobenzyl)propanoyl)piperidin-4-yl)-5-cyclopropylisoxazole-3-carboxamide]"
3,14.9 µM,"C[C@@H]1CN(C(=O)[C@H](N)Cc2ccc(O)cc2)CCC1NC(=O)c1cc(C2CC2)on1 (stereo partly drawn) [compound 48, N-((3R)-1-(D-tyrosyl)-3-methylpiperidin-4-yl)-5-cyclopropylisoxazole-3-carboxamide]"
4,14 µM,"Cc1ccc(C[C@@H](CN)C(=O)N2CCC(NC(=O)c3cc(C4CC4)on3)CC2)cc1O [compound 39, (S)-N-(1-(3-amino-2-(3-hydroxy-4-methylbenzyl)propanoyl)piperidin-4-yl)-5-cyclopropylisoxazole-3-carboxamide]"
5,7.97 µM,"C[C@H]1C[C@@H](NC(=O)c2cc(C3CC3)on2)CCN1C(=O)[C@H]1CC[C@H](N)CC1 [compound 59, N-((2S,4S)-1-((1r,4S)-4-aminocyclohexane-1-carbonyl)-2-methylpiperidin-4-yl)-5-cyclopropylisoxazole-3-carboxamide]"
6,1.64 µM,"NCCC(=O)NC[C@@H](Cc1ccc(O)c(I)c1)C(=O)N1CCC(NC(=O)c2cc(C3CC3)on2)CC1 [compound 34, (R)-N-(1-(3-(3-aminopropanamido)-2-(4-hydroxy-3-iodobenzyl)propanoyl)piperidin-4-yl)-5-cyclopropylisoxazole-3-carboxamide]"
7,1.41 µM,"C[C@H]1C[C@H](NC(=O)c2cc(C3CC3)on2)CCN1C(=O)[C@H]1CC[C@H](N)CC1 [compound 60, N-((2S,4R)-1-((1r,4S)-4-aminocyclohexane-1-carbonyl)-2-methylpiperidin-4-yl)-5-cyclopropylisoxazole-3-carboxamide]"
8,1.23 µM,"C[C@@H](N)C(=O)NC[C@H](Cc1ccc(O)c(I)c1)C(=O)N1CCC(NC(=O)c2cc(C3CC3)on2)CC1 [compound 43, N-(1-((S)-3-((R)-2-aminopropanamido)-2-(4-hydroxy-3-iodobenzyl)propanoyl)piperidin-4-yl)-5-cyclopropylisoxazole-3-carboxamide]"
9,0.681 µM,"C[C@@H]1C[C@H](NC(=O)c2cc(C3CC3)on2)CCN1C(=O)CC1CCNCC1 [compound 55, 5-cyclopropyl-N-((2R,4R)-2-methyl-1-(2-(piperidin-4-yl)acetyl)piperidin-4-yl)isoxazole-3-carboxamide]"

# From patent US10577363B2, “Substituted piperidine compounds” (EPIZYME, INC., priority 2014, dated 2020)
